Here are results for three compounds from ChEMBL document CHEMBL4673355, “Thiacalixarene based quaternary ammonium salts as promising antibacterial agents” (Bioorg Med Chem, 2021).

Data set [1] relates to Staphylococcus epidermidis. The experiment in a line: Antibacterial activity against Staphylococcus epidermidis assessed as reduction in bacterial growth incubated for 24 hrs by CLSI broth microdilution method. The class given is functional.
Data set [2] in a line: Selectivity index, ratio of CC50 for human HSF cells to MIC for Klebsiella pneumoniae ATCC 1813. The class given is toxicity.
In data set [3] the test system is Escherichia coli. The experiment in a line: Bactericidal activity against Escherichia coli ATCC 25922 assessed as reduction in bacterial growth incubated for 24 hrs followed by replating on MH broth and further incubated for 24 hrs by CLSI broth microdilution method. The class given is functional.
For data set [4], the system named is Staphylococcus intermedius. Kind of data set: Antibacterial activity against methicillin- resistant Staphylococcus intermedius 1143 clinical isolate assessed as reduction in bacterial growth incubated for 24 hrs by CLSI broth microdilution method. The class given is functional.
Data set [5] concerns Klebsiella sp. Kind of data set: Antibacterial activity against […] resistant Klebsiella sp. clinical isolate 12 assessed as reduction in bacterial growth incubated for 24 hrs by CLSI broth microdilution method. The class given is functional.
The nature of data set [6]: Antibacterial activity against […] resistant Moraxella sp.765 clinical isolate assessed as reduction in bacterial growth incubated for 24 hrs by CLSI broth microdilution method. The class given is functional. The following applies: Moraxella catarrhalis.
In data set [7] the test system is Staphylococcus aureus. The experiment in a line: Bactericidal activity against Staphylococcus aureus ATCC 29213 assessed as reduction in bacterial growth incubated for 24 hrs followed by replating on MH broth and further incubated for 24 hrs by CLSI broth microdilution method. The class given is functional. The following applies: Staphylococcus aureus, ATCC 29213; time 48 hrs; read-out: MBC.

Data set [8] concerns Acinetobacter. Kind of data set: Antibacterial activity against […] resistant Acinetobacter spp. clinical isolate 3 assessed as reduction in bacterial growth incubated for 24 hrs by CLSI broth microdilution method. The class given is functional.
Data set [9] has as its system Staphylococcus aureus. Kind of data set: Antibacterial activity against methicillin- resistant Staphylococcus aureus 25 clinical isolate assessed as reduction in bacterial growth incubated for 24 hrs by CLSI broth microdilution method. The class given is functional.
Data set [10] in a line: Antibacterial activity against […] resistant Moraxella sp.829 clinical isolate assessed as reduction in bacterial growth incubated for 24 hrs by CLSI broth microdilution method. The class given is functional. Particulars: Moraxella catarrhalis.
The test system of another data set is Proteus sp. Kind of data set: Antibacterial activity against […] resistant Proteus sp. clinical isolate 17 assessed as reduction in bacterial growth incubated for 24 hrs by CLSI broth microdilution method. Particulars: Proteus sp. (in: enterobacteria). The class given is functional.
Data set [11] concerns Staphylococcus aureus. The experiment in a line: Antibacterial activity against methicillin- resistant Staphylococcus aureus 2020 clinical isolate assessed as reduction in bacterial growth incubated for 24 hrs by CLSI broth microdilution method. The class given is functional.
In data set [12] the test system is Acinetobacter. Kind of data set: Antibacterial activity against […] resistant Acinetobacter spp. clinical isolate 1 assessed as reduction in bacterial growth incubated for 24 hrs by CLSI broth microdilution method. The class given is functional.
For data set [13], the system named is Staphylococcus aureus. The experiment in a line: Antibacterial activity against methicillin- resistant Staphylococcus aureus 983 clinical isolate assessed as reduction in bacterial growth incubated for 24 hrs by CLSI broth microdilution method. The class given is functional.
Data set [14] concerns Bacillus subtilis. The experiment in a line: Antibacterial activity against Bacillus subtilis 168 assessed as reduction in bacterial growth incubated for 24 hrs by CLSI broth microdilution method. The class given is functional.
In data set [15] the test system is Acinetobacter. Kind of data set: Antibacterial activity against […] resistant Acinetobacter spp. clinical isolate 5 assessed as reduction in bacterial growth incubated for 24 hrs by CLSI broth microdilution method. The class given is functional.
Data set [16] has as its system Pseudomonas aeruginosa. Kind of data set: Antibacterial activity against Pseudomonas aeruginosa ATCC 27853 assessed as reduction in bacterial growth incubated for 24 hrs by CLSI broth microdilution method. The class given is functional.
Data set [17] relates to Klebsiella sp. Kind of data set: Antibacterial activity against […] resistant Klebsiella sp. clinical isolate 11 assessed as reduction in bacterial growth incubated for 24 hrs by CLSI broth microdilution method. The class given is functional.
Data set [18] deals with Klebsiella pneumoniae. Kind of data set: Bactericidal activity against Klebsiella pneumoniae ATCC 1813 assessed as reduction in bacterial growth incubated for 24 hrs followed by replating on MH broth and further incubated for 24 hrs by CLSI broth microdilution method. The class given is functional.
Data set [19] concerns Staphylococcus aureus. The experiment in a line: Antibacterial activity against methicillin- resistant Staphylococcus aureus 967 clinical isolate assessed as reduction in bacterial growth incubated for 24 hrs by CLSI broth microdilution method. The class given is functional.
The nature of data set [20]: Antibacterial activity against […] resistant Moraxella sp.764 clinical isolate assessed as reduction in bacterial growth incubated for 24 hrs by CLSI broth microdilution method. The class given is functional. Particulars: Moraxella catarrhalis.
Data set [21] has as its system Staphylococcus haemolyticus. Kind of data set: Antibacterial activity against methicillin- resistant Staphylococcus haemolyticus 837 assessed as reduction in bacterial growth incubated for 24 hrs by CLSI broth microdilution method. The class given is functional.
Data set [22] relates to Bacillus subtilis. The experiment in a line: Bactericidal activity against Bacillus subtilis 168 assessed as reduction in bacterial growth incubated for 24 hrs followed by replating on MH broth and further incubated for 24 hrs by CLSI broth microdilution method. The class given is functional. The following applies: Bacillus subtilis, 168, 24 h.
Data set [23] can be described thus: Selectivity index, ratio of CC50 for human HSF cells to MIC for Pseudomonas aeruginosa ATCC 27853. The following applies: for selectivity ratio: HSF cells. The class given is toxicity.
For data set [24], the system named is Pseudomonas aeruginosa. The experiment in a line: Bactericidal activity against Pseudomonas aeruginosa ATCC 27853 assessed as reduction in bacterial growth incubated for 24 hrs followed by replating on MH broth and further incubated for 24 hrs by CLSI broth microdilution method. The class given is functional.
In another data set the test system is Pseudomonas. Kind of data set: Antibacterial activity against methicillin- resistant Pseudomonas spp. clinical isolate 6 assessed as reduction in bacterial growth incubated for 24 hrs by CLSI broth microdilution method. The class given is functional.
The test system of data set [25] is Staphylococcus epidermidis. The experiment in a line: Bactericidal activity against Staphylococcus epidermidis assessed as reduction in bacterial growth incubated for 24 hrs followed by replating on MH broth and further incubated for 24 hrs by CLSI broth microdilution method. The class given is functional. Particulars: Staphylococcus epidermidis, read-out: MBC.

Data set [26] is described as follows: Selectivity index, ratio of CC50 for human HSF cells to MIC for Escherichia coli ATCC 25922. The class given is toxicity.
Data set [27] can be described thus: Selectivity index, ratio of CC50 for human HSF cells to MIC for Bacillus subtilis 168. The following applies: HSF cells. The class given is toxicity.
A short description of data set [28]: Selectivity index, ratio of CC50 for human HSF cells to MIC for Staphylococcus aureus ATCC 29213. The class given is toxicity. Particulars: HSF cells.
For data set [29], the system named is Staphylococcus aureus. The experiment in a line: Antibacterial activity against Staphylococcus aureus ATCC 29213 assessed as reduction in bacterial growth incubated for 24 hrs by CLSI broth microdilution method. The following applies: Staphylococcus aureus, ATCC 29213, 24 h, read-out: MIC. The class given is functional.
Data set [30] relates to Escherichia coli. Kind of data set: Antibacterial activity against Escherichia coli ATCC 25922 assessed as reduction in bacterial growth incubated for 24 hrs by CLSI broth microdilution method. The class given is functional. The following applies: Escherichia coli, ATCC 25922, 24 h, read-out: MIC.
Data set [31] in a line: Selectivity index, ratio of CC50 for human HSF cells to MIC for Staphylococcus epidermidis. The class given is toxicity. The following applies: HSF cells.
The nature of data set [32]: Cytotoxicity against human HSF cells assessed as reduction in cell viability incubated for 72 hrs by MTT assay. The class given is cell-based, HSF (VGS).
Data set [33] deals with Klebsiella pneumoniae. Kind of data set: Antibacterial activity against Klebsiella pneumoniae ATCC 1813 assessed as reduction in bacterial growth incubated for 24 hrs by CLSI broth microdilution method. The class given is functional. Particulars: Klebsiella pneumoniae, ATCC 1813, 24 h, read-out: MIC.
Where [34] appears, read: Staphylococcus epidermidis, read-out: MIC.
Where [35] appears, read: Bacillus subtilis, 168, 24 h, read-out: MIC.
Where [36] appears, read: Pseudomonas aeruginosa, ATCC 27853, 24 h, read-out: MIC.

Converted amounts (≈) assume the structure as drawn. “And” between values parts separate entries of the source, which are not always exact repeats. Identical values can stand only once. Some results are limits rather than exact numbers.

Turning to `CCCCCCCCCC[N+](C)(C)CCCNC(=O)COc1c2cc(C(C)(C)C)cc1Sc1cc(C(C)(C)C)cc(c1OCC(=O)NCCC[N+](C)(C)CCCCCCCCCC)Sc1cc(C(C)(C)C)cc(c1OCC(=O)NCCC[N+](C)(C)CCCCCCCCCC)Sc1cc(C(C)(C)C)cc(c1OCC(=O)NCCC[N+](C)(C)CCCCCCCCCC)S2.[Cl-].[Cl-].[Cl-].[Cl-]`, the minimal inhibitory concentration (MIC) is 4 µg/mL in data set [1]; 8 µg/mL in [1] (setting [34]); 2 µg/mL in [4]; above 64 µg/mL with Klebsiella sp. [5]; above 64 µg/mL in data set [6]; above 64 µg/mL in the data set with Acinetobacter [8]. Besides, the MIC in the data set on Staphylococcus aureus [9] was 4 µg/mL; in data set [10], above 64 µg/mL; in the data set on Proteus sp. it was above 64 µg/mL; in the data set with Staphylococcus aureus [11], 32 µg/mL; in the data set with Acinetobacter [12] it was above 64 µg/mL; with Staphylococcus aureus [13], 32 µg/mL. In addition, the MIC with Bacillus subtilis [14] is 4 µg/mL; with Bacillus subtilis [14] (setting [35]) it was 4 µg/mL; in the data set on Acinetobacter [15] it was above 64 µg/mL; with Pseudomonas aeruginosa [16] (24 h), above 64 µg/mL; in the data set with Pseudomonas aeruginosa [16] (setting [36]) it was 64 µg/mL; in the data set on Klebsiella sp. [17], above 64 µg/mL. Further, the MIC is 32 µg/mL in the data set with Staphylococcus aureus [19], above 64 µg/mL in [20], 32 µg/mL in [21] and above 64 µg/mL with Pseudomonas. The Ratio in data set [2] was 1 and 3; in [23], below 0.5. For the same compound, the minimal bactericidal concentration (MBC) was 64 µg/mL with Escherichia coli [3]; 8 µg/mL in the data set on Staphylococcus aureus [7]; 32 µg/mL with Klebsiella pneumoniae [18]; 32 µg/mL in the data set on Bacillus subtilis [22]; above 64 µg/mL in the data set with Pseudomonas aeruginosa [24]; 16 µg/mL in data set [25]. In data set [23], the selectivity ratio was 0.5.
Turning to `CCCCCCCC[N+](C)(C)CCCNC(=O)COc1c2cc(C(C)(C)C)cc1Sc1cc(C(C)(C)C)cc(c1OCC(=O)NCCC[N+](C)(C)CCCCCCCC)Sc1cc(C(C)(C)C)cc(c1OCC(=O)NCCC[N+](C)(C)CCCCCCCC)Sc1cc(C(C)(C)C)cc(c1OCC(=O)NCCC[N+](C)(C)CCCCCCCC)S2.[Cl-].[Cl-].[Cl-].[Cl-]`, the MBC came to 16 µg/mL with Escherichia coli [3]; 1 µg/mL in the data set with Staphylococcus aureus [7]; 32 µg/mL in the data set with Klebsiella pneumoniae [18]; 16 µg/mL with Bacillus subtilis [22]; 32 µg/mL with Pseudomonas aeruginosa [24]; 2 µg/mL in data set [25]. Further, the minimum inhibitory concentration (MIC) in data set [4] amounted to 2 µg/mL; with Klebsiella sp. [5] it was 16 µg/mL; in [6], 16 µg/mL; with Acinetobacter [8], 16 µg/mL; with Staphylococcus aureus [9], 4 µg/mL; in [10], 16 µg/mL. The MIC in the data set on Proteus sp. came out at 64 µg/mL; in the data set on Staphylococcus aureus [11], 16 µg/mL; in the data set with Acinetobacter [12], 8 µg/mL; with Staphylococcus aureus [13], 16 µg/mL; with Bacillus subtilis [14] (24 h) it was 4 µg/mL; in the data set on Bacillus subtilis [14] (setting [35]), 2 µg/mL. The MIC (in the data set on Acinetobacter [15]; in the data set with Klebsiella sp. [17]; in the data set with Staphylococcus aureus [19]; in data set [20]; in [21]; with Pseudomonas) was 16 µg/mL each time.
Turning to `[H]/N=C(\N/C(=N/[H])NCCCCCCNC(=N)NC(=N)Nc1ccc(Cl)cc1)Nc1ccc(Cl)cc1` [CHLORHEXIDINE], the selectivity ratio in [26] was found to be 5.48; in data set [27] it was 2.74; in data set [28], 2.74; in data set [2] (HSF cells), 2.74; in data set [31], 5.48; in [23] it was 1.37. For the same compound, the minimum inhibitory concentration (MIC) was 1 µg/mL (≈ 1.98 µM) in data set [1] (setting [34]); 2 µg/mL (≈ 3.96 µM) with Staphylococcus aureus [29]; 1 µg/mL (≈ 1.98 µM) in the data set on Escherichia coli [30]; 2 µg/mL (≈ 3.96 µM) in the data set with Bacillus subtilis [14] (setting [35]); 2 µg/mL (≈ 3.96 µM) in the data set on Klebsiella pneumoniae [33]; 4 µg/mL (≈ 7.91 µM) with Pseudomonas aeruginosa [16] (setting [36]). For the same compound, the CC50 at 72 h in [32] is 5.48 µg/mL (≈ 10.8 µM).
